Source: paper PMC4836387 (ACS Chemical Biology, 2016)

What was measured:
[1] = test system: HIV-1 vector carrying IN mutant E92Q; test: single-round HIV-1 infectivity assay, E92Q IN; format: cell-based; conditions: for EC50: Human immunodeficiency virus 1, read-out: EC50 E92Q; for Fold-change (FC) in EC50 relative to WT, E92Q: in parentheses
HIV-1 IN = HIV-1 IN (Human immunodeficiency virus type 1 group M subtype B, UniProt P12497); test: in vitro IN assay, strand transfer; format: biochemical; conditions: in vitro ST inhibitory IC50, text values
[2] = test system: lentiviral vector carrying WT IN; test: single-round HIV-1 infectivity assay, WT IN; format: cell-based; conditions: Human immunodeficiency virus 1, read-out: EC50 (WT IN)
[3] = test system: HIV-1 vector carrying IN mutant R263K; test: single-round HIV-1 infectivity assay, R263K IN; format: cell-based; conditions: for EC50: Human immunodeficiency virus 1, read-out: EC50 R263K; for Fold-change (FC) in EC50 relative to WT, R263K: in parentheses
in vitro = conditions: human
[4] = test system: HIV-1 vector carrying IN mutant N155H; test: single-round HIV-1 infectivity assay, N155H IN; format: cell-based; conditions: for EC50: Human immunodeficiency virus 1, read-out: EC50 N155H; for Fold-change (FC) in EC50 relative to WT, N155H: in parentheses
[5] = test system: HIV-1 vector carrying IN mutant H51Y/R263K; test: single-round HIV-1 infectivity assay, H51Y/R263K IN; format: cell-based; conditions: for EC50: Human immunodeficiency virus 1, read-out: EC50 H51Y/R263K; for Fold-change (FC) in EC50 relative to WT, H51Y/R263K: in parentheses
[6] = test system: HIV-1 vector carrying IN mutant Y143R; test: single-round HIV-1 infectivity assay, Y143R IN; format: cell-based; conditions: for EC50: Human immunodeficiency virus 1, read-out: EC50 Y143R; for Fold-change (FC) in EC50 relative to WT, Y143R: in parentheses
[7] = test system: HIV-1 vector carrying IN mutant T66I; test: single-round HIV-1 infectivity assay, T66I IN; format: cell-based; conditions: for EC50: Human immunodeficiency virus 1, read-out: EC50 T66I; for Fold-change (FC) in EC50 relative to WT, T66I: in parentheses
[8] = test system: HIV-1 vector carrying IN mutant H51Y; test: single-round HIV-1 infectivity assay, H51Y IN; format: cell-based; conditions: for EC50: Human immunodeficiency virus 1, read-out: EC50 H51Y; for Fold-change (FC) in EC50 relative to WT, H51Y: in parentheses
[9] = test system: HIV-1 vector carrying IN mutant G118R; test: single-round HIV-1 infectivity assay, G118R IN; format: cell-based; conditions: for EC50: Human immunodeficiency virus 1, read-out: EC50 G118R; for Fold-change (FC) in EC50 relative to WT, G118R: in parentheses
[10] = test system: HIV-1 vector carrying IN mutant G140S/Q148H; test: single-round HIV-1 infectivity assay, G140S/Q148H IN; format: cell-based; conditions: for Fold-change (FC) in EC50 relative to WT, G140S/Q148H: in parentheses

| Structure (SMILES) | EC50 [1] [nM] | Fold-change (FC) in EC50 relative to WT, E92Q [1] | EC50 [2] [nM] | EC50 [3] [nM] | Fold-change (FC) in EC50 relative to WT, R263K [3] | CC50 (in vitro) [nM] | EC50 [4] [nM] | Fold-change (FC) in EC50 relative to WT, N155H [4] | EC50 [5] [nM] | Fold-change (FC) in EC50 relative to WT, H51Y/R263K [5] | EC50 [6] [nM] | Fold-change (FC) in EC50 relative to WT, Y143R [6] | EC50 [7] [nM] | Fold-change (FC) in EC50 relative to WT, T66I [7] | EC50 [8] [nM] | Fold-change (FC) in EC50 relative to WT, H51Y [8] | EC50 [9] [nM] | Fold-change (FC) in EC50 relative to WT, G118R [9] | Fold-change (FC) in EC50 relative to WT, G140S/Q148H [10] | other results |
| --- | --- | --- | --- | --- | --- | --- | --- | --- | --- | --- | --- | --- | --- | --- | --- | --- | --- | --- | --- | --- |
| Nc1c(C(=O)NCc2ccc(F)cc2F)c(=O)n(O)c2ncc(CCCO)cc12 [4b] | 4.8 ± 2 | 1.5 | 3.1 ± 2 | 2.5 ± 0.8 | 0.81 | > 250000 | 8.5 ± 3.1 | 2.7 | 15 ± 2 | 4.8 | 2.8 ± 0.9 | 0.90 | 1.1 ± 0.1 | 0.35 | 2.6 ± 0.5 | 0.84 | 10 ± 1.6 | 3.2 | 4.3 | IC50 (HIV-1 IN): 11 nM |
| Nc1c(C(=O)NCc2ccc(F)cc2F)c(=O)n(O)c2ncc(CCCCCO)cc12 [4c] | 3.8 ± 2.3 |  | 1.3 ± 0.2 | 2.6 ± 0.1 | 2.0 | > 250000 | 2.4 ± 0.8 | 1.8 | 2.6 ± 1.4 | 2.0 | 3 ± 0.5 | 2.3 | 0.93 ± 0.24 | 0.72 | 3.8 ± 0.6 | 2.9 | 5.3 ± 1.6 | 4.1 | 5.3 | EC50 ([10]; read-out: EC50 G140S/Q148H, viral vector carrying IN mutations G140S/Q148H): 6.9 ± 2.3 nM |
| Nc1c(C(=O)NCc2ccc(F)cc2F)c(=O)n(O)c2ncc(CCCCCCO)cc12 [4d] | 0.74 ± 0.13 | 0.32 | 2.3 ± 0.6 | 8.4 ± 2.3 | 3.7 | > 250000 | 2.7 ± 1 | 1.2 | 5.2 ± 1.6 | 2.3 | 2.1 ± 1.4 | 0.91 | 0.5 ± 0.35 | 0.22 | 1.6 ± 0.1 | 0.70 | 6.4 ± 2.5 | 2.8 | 4.1 |  |
| Nc1c(C(=O)NCc2ccc(F)cc2F)c(=O)n(O)c2ncc(CCCCCCCCO)cc12 [4e] | 2.6 ± 0.2 | 0.70 | 3.7 ± 0.4 | 3.8 ± 1.1 | 1.0 | > 250000 | 6.5 ± 2.7 | 1.8 | 22 ± 8 | 5.9 | 3.2 ± 0.8 | 0.86 | 1.7 ± 0.5 | 0.46 | 4.8 ± 1.1 | 1.3 | 11 ± 1 | 3.0 | 2.1 | IC50 (HIV-1 IN): 5 nM |
| Nc1c(C(=O)NCc2ccc(F)cc2F)c(=O)n(O)c2ncc(CCS(=O)(=O)c3ccccc3)cc12 [4f] | 1.2 ± 0.6 | 0.6 | 2 ± 0.1 | 5.3 ± 0.8 | 2 | > 250000 | 2.1 ± 1.2 | 1 | 5.3 ± 0.4 | 2 | 0.6 ± 0.1 | 0.3 | 0.7 ± 0.1 | 0.3 | 0.8 ± 0.5 | 0.4 | 11.4 ± 3.5 | 6 | 3 |  |
| Cc1nnc(C(=O)NC(C)(C)c2nc(C(=O)NCc3ccc(F)cc3)c(O)c(=O)n2C)o1 [compound 1, raltegravir, reference compound] | 30 ± 10 |  |  |  |  |  |  |  | 6 ± 2.3 |  |  |  | 2.8 ± 0.4 |  | 3.4 ± 0.2 |  |  |  |  |  |
| COc1cc2c(cc1Cc1cccc(Cl)c1F)c(=O)c(C(=O)O)cn2[C@H](CO)C(C)C [compound 2, elvitegravir, reference compound] | 154 ± 34 | 24 | 6.4 ± 0.8 | 10 ± 6 | 1.6 | > 250000 | 90 ± 18 | 14 | 53 ± 18 | 8 | 7.9 ± 2.3 | 1.2 | 66 ± 1 | 10 | 4.5 ± 2.1 | 0.7 | 21 ± 10 | 3.3 | 891 |  |
| C[C@@H]1CCO[C@H]2Cn3cc(C(=O)NCc4ccc(F)cc4F)c(=O)c(O)c3C(=O)N12 [compound 3, dolutegravir, reference compound] | 2.3 ± 0.4 |  |  |  |  |  |  |  | 16 ± 2 |  |  |  | 0.9 ± 0.8 |  | 3.2 ± 0.2 |  |  |  |  |  |
